Patent US12209112B2, “Methods of preventing or treating diseases, conditions, or disorders associated with chemotherapy” (The Chinese University of Hong Kong, priority 2022, dated 2025)
Read-outs that look alike come from different tables or passages of the source.

Key:
C57BL/6J male mice [1] = assay: Noninvasive blood pressure in mouse doxorubicin cardiotoxicity model; format: in vivo; settings: for Day 28 DBP / Day 28 SBP: after doxorubicin 5 mg/kg intraperitoneal once weekly for four weeks (Dox + groups); for Day 28 DBP / Day 28 SBP / Day 0 DBP / Day 0 SBP: n = 4 per group; for Day 0 DBP / Day 0 SBP: before doxorubicin administration
From the text: Recombinant human GDF15/MIC-1 protein (CHO-derived) was purchased from PeproTech Inc. (Cranbury, USA) and described in Example 1. […] PubChem identifier number 71384) were purchased from Abcam (Cambridge, UK). For in vitro studies, solid lyophilized powder of these two drugs were solubilized at the recommended concentrations in sterile water, and separate aliquots were made and frozen until thawing prior to addition to cell cultures. […] The recommended dose ratio of dexrazoxane to doxorubicin was 10 to 1. In the following examples, 5 mg/kg of doxorubicin was used which correspond to 50 mg/kg of dexrazoxane. The FDA recommends that dexrazoxane be injected within 0.5 hour prior to doxorubicin infusion in individuals. This was followed in the same manner when applying to the test animals. Ten- to twelve-week old C57BL/6J male mice were purchased from the Laboratory Animal Services Centre of CUHK. They were maintained in specific pathogen-free facility of the CUHK Laboratory Animal Services Centre Research Unit at Prince of Wales Hospital with free access to food and water and maintained in a light/night cycle of 12 hours/12 hours. All mice were fed a standard diet. Blood pressure of animals was measured using the noninvasive CODA® High Throughput System (Torrington, USA) in accordance with the manufacturer's instructions. Measurement platform was prewarmed and maintained at 33-35° C. O-cuffs and VPR-cuffs were used as instructed. Blood pressure of each mouse was measured for at least three cycles. Mice were released and returned to their cages immediately after measurement. Blood pressure was measured twice, once at the beginning of the experiment and once before sacrifice. To induce cardiotoxicity in the mouse, four weekly intraperitoneal injections of doxorubicin at 5 mg/kg were administered. After one dose of doxorubicin at 5-6 mg/kg in a mouse, the level of exposure has been estimated to be similar to that of a human individual being given a standard dose of doxorubicin at approximately 60 mg/m^2.

hESC-CMs [2] = assay: Mitochondrial morphology analysis (MitoTracker Deep Red); format: cell-based, human
Description: To evaluate mitochondrial morphology as a surrogate of cell and mitochondrial viability, hESC-CMs were incubated in B27+/RPMI−1640 media containing 50 nmol/L MitoTracker Deep Red (MTDR) (Thermo Fisher Scientific, USA), and 1 μg/ml Hoechst 33342 (Thermo Fisher Scientific, USA) for 20 minutes. Microscopic images were acquired using DMi8s Research Inverted Thunder Imager Live Cell System (Leica, Germany). For MTDR and Hoechst 33342 imaging, excitation wavelengths of […] and 480 nm, respectively, were used. Mitochondrial morphology was classified into three categories: i) elongated, ii) punctate, and iii) perinuclear. Nuclear morphology was classified as either condensed or normal.

C57BL/6J male mice [3] = format: in vivo, mouse
Description: Recombinant human GDF15/MIC-1 protein (CHO-derived) was purchased from PeproTech Inc. (Cranbury, USA) and described in Example 1. […] For in vitro studies, solid lyophilized powder of these two drugs were solubilized at the recommended concentrations in sterile water, and separate aliquots were made and frozen until thawing prior to addition to cell cultures. For in vivo studies, all agents were dissolved in […] normal saline according to the required concentrations (doxorubicin, 5 mg/kg; GDF15, 0.5 mg/kg; dexrazoxane, […]), and the final volume of each intraperitoneal injection was 100 μl. The recommended dose ratio of dexrazoxane to doxorubicin was 10 to 1. In the following examples, 5 mg/kg of doxorubicin was used which correspond to 50 mg/kg of dexrazoxane. The FDA recommends that dexrazoxane be injected within 0.5 hour prior to doxorubicin infusion in individuals. This was followed in the same manner when applying to the test animals.
To induce cardiotoxicity in the mouse, four weekly intraperitoneal injections of doxorubicin at 5 mg/kg were administered. After one dose of doxorubicin at 5-6 mg/kg in a mouse, the level of exposure has been estimated to be similar to that of a human individual being given a standard dose of doxorubicin at approximately 60 mg/m^2. Previous studies have shown that mice injected with doxorubicin once a week at 5 mg/kg for four weeks developed cardiotoxicity, as evidenced by decreased ventricular ejection fraction, cardiomyocyte apoptosis, histopathological changes consistent with doxorubicin-induced myocardial damage, and increased mortality rate, compared with the control group.
The hearts of mice were collected after sacrifice and fixed in 4% paraformaldehyde overnight, followed by paraffin embedding. Afterwards the hearts were cut into 4 μm thick slices. Sections were deparaffinized and rehydrated using sequential immersion in 100% alcohol, 95% alcohol and 70% alcohol for 15 minutes each. […]

hESC-CMs [4] = assay: Real-time PCR of genes important for mitochondrial function; format: cell-based, human
Description: RNA was extracted using TRIzol™ Reagent (Thermo Fisher Scientific, USA) as per manufacturer's protocol. RNase-free reagents and consumables were used. RNA concentration and A260/280 ratio were determined using Synergy HTX Multi-Mode microplate reader (Agilent Technologies, USA).
cDNA was synthesized using the PrimeScript™ RT Master Mix (Takara, Japan) for real-time quantitative polymerase chain reaction (qPCR). Briefly, reverse transcription used 2 μl of 5× PrimeScript™ RT Master Mix, 0.5 μg of total RNA, and RNase-free dH2O added to total mixture volume of 10 μl. The reaction was carried out at 37° C. for 15 minutes and 85° C. for 5 seconds.
qPCR was performed using SYBR Green Master Mix (Promega, USA) as per manufacturer's protocol. A total reaction volume of 10 μl included 5 μl GoTaq® qPCR Master Mix 2×, 0.3 μl 10 nmol/L primers mix, and 30 ng cDNA template. The qPCR condition was: 1 cycle of 95° C. for 2 minutes, 40 cycles of 95° C. for 3 seconds, and 60° C. for 30 seconds. Expression level of genes was quantified using the 2^−ΔΔCT method on a ABI QuantStudio 12-Flex QPCR System W/96 Fast & 384 (Thermo Fisher Scientific, USA). Primer sequences used were summarized as follows for the respective gene sequences (Table 2).

[5] = 300 ng/ml GDF15 pretreatment, hESC-CMs exposed to doxorubicin

Q: With COc1cccc2c1C(=O)c1c(O)c3c(c(O)c1C2=O)C[C@@](O)(C(=O)CO)C[C@@H]3OC1C[C@H](N)[C@H](O)[C@H](C)O1.Cl (stereo partly drawn) [Dox, (8S,10S)-10-[(3-Amino-2,3,6-trideoxy-L-lyxohexopyranosyl)oxy]-7,8,9,10-tetrahydro-6,8,11-trihydroxy-8-(hydroxyacetyl)-1-methoxynaphthacene-5,12-dione hydrochloride, reference compound] as the molecule, how does the “Day 28 DBP” value (C57BL/6J male mice [1]) read?
A: The value was 119 ± 7 mmHg.

Q: What about the “Day 28 SBP” value (C57BL/6J male mice [1]) of the same molecule?
A: The value was 146 ± 7 mmHg.

Q: What about the “Day 0 DBP” value (C57BL/6J male mice [1]) of the same molecule?
A: Its value is 87 ± 15 mmHg.

Q: What about the “Day 0 SBP” value (C57BL/6J male mice [1]) of the same molecule?
A: The value was 116 ± 13 mmHg.

Q: What about the “punctation or perinuclear changes of mitochondria” value (hESC-CMs [2]; doxorubicin-treated cells, no pretreatment, untreated control 5.4±4.2%) of the same molecule?
A: The value was 47.3±12.6%.

Q: And the “elongated mitochondria (proportion of hESC-CMs)” value (hESC-CMs [2]; doxorubicin-treated cells, no pretreatment, untreated control 94.6±5.8%)?
A: Its value is 24.5±17.1%.

Q: What about the “myocardial histopathology (hematoxylin and eosin)” value (C57BL/6J male mice [3]; mouse, in vivo) of the same molecule?
A: Its value is “myocardial structural disarray, and microfibrillar disruption and disorganization”.

Q: What about the “expression of genes important for mitochondrial function” value (hESC-CMs [4]; hESC-CMs, doxorubicin alone) of the same molecule?
A: The value was “suppressed”.

Q: Which results are given for “GDF15: commercially available recombinant human GDF-15 protein (PeproTech 120-28C), CHO cell-derived, SEQ ID NO: 1”?
A: systolic and diastolic blood pressure (C57BL/6J male mice [1]; GDF15 5 mg/kg intraperitoneal before doxorubicin, compared with doxorubicin only): significantly lowered; Day 28 DBP (C57BL/6J male mice [1]): 88 ± 5 mmHg; Day 28 SBP (C57BL/6J male mice [1]): 121 ± 5 mmHg; Day 0 DBP (C57BL/6J male mice [1]): 83 ± 17 mmHg; Day 0 SBP (C57BL/6J male mice [1]): 117 ± 12 mmHg; elongated mitochondria (hESC-CMs [2]; [5]): 62.5±11.0%; perinuclear mitochondria (hESC-CMs [2]; [5]): 13.2±14.7%; mitochondrial integrity compared with dexrazoxane (hESC-CMs [2]; hESC-CMs, pretreatment in the presence of Dox): performed similarly to dexrazoxane; myocardial histopathology (hematoxylin and eosin) (C57BL/6J male mice [3]; mice, pretreatment before doxorubicin): similarly improved; expression of genes important for mitochondrial function (hESC-CMs [4]; hESC-CMs pretreated with GDF15 prior to doxorubicin exposure): improved
